{
  "source": "patent US8951566B2",
  "about": "“Process for preparing products comprising stabilised actives and compositions comprising same” (priority 2011, dated 2015)",
  "test": "Blood glucose of a diabetic patient switched from Metformin to sublingual Exenatide tablet",
  "format": "in vivo, human",
  "conditions": "one diabetic patient; Exenatide 20 μg sublingual tablet once a day; FIGS. 1 and 2",
  "protocol": "A diabetic patient who was undergoing treatment with Metformin switched to once a day treatment with a slow release 20 μg Exenatide sublingual tablet prepared in accordance with Example 2. The fasting glucose and plasma glucose levels were measured and are depicted in FIGS. 1 and 2.",
  "data": [
    {"smiles": "CN(C)C(=N)N=C(N)N", "note": "[Metformin]", "values": [
      {"measurement": "blood glucose level / profile (fasting and 2 hours after a meal)", "result": "erratic and difficult to control"}
    ]}
  ]
}
